Laboratory results reported in patent US20070244103A1, “Novel Compounds Having an Anti-Bacterial Activity” (Morphochem Aktiengesellschaft Fur Kombinatorische Chemie, priority 2004, published 2007).

assay: MIC of the examples against various organisms; type: cell-based; details: against at least two of the above organisms (12-strain panel)
Experimental: The MIC (μg/ml) of the examples against various organisms was determined: A. baumannii ATCC19606, E. cloacae ATCC23355, E. coli ATCC25922, K. pneumoniae ATCC27736, P. mirabilis ATCC29906, P. aeruginosa ATCC27853, S. maltophilia ATCC13637, S. aureus ATCC43300, S. epidermidis ATCC14990, S. haemolyticus ATCC29970, E. faecalis ATCC29212 and E. faecium ATC19434.

| SMILES | MIC [µg/mL] |
| --- | --- |
| COc1ccc2ncc(Cl)c(C(O)CN3C4CCC3CC(NCc3ccc5nsnc5c3)C4)c2c1 (single isomer, unassigned) [Example 58, 2-{3-[(Benzo[1,2,5]thiadiazol-5-ylmethyl)-amino]-8-aza-bicyclo[3.2.1]oct-8-yl}-1-(3-chloro-6-methoxy-quinolin-4-yl)-ethanol] | ≤ 2 |
| COc1cnc2cccc(C(O)CN3CCCC(CNCc4ccc5nsnc5c4)C3)c2c1 (single isomer, unassigned) [Example 41, 2-(3-{[(Benzo[1,2,5]thiadiazol-5-ylmethyl)-amino]-methyl}-piperidin-1-yl)-1-(3-methoxy-quinolin-5-yl)-ethanol] | ≤ 2 |
| COc1ccc2ncc(Cl)c(C(O)CN3C4CCC3CC(NCc3ccc5nonc5c3)C4)c2c1 (single isomer, unassigned) [Example 59, 2-{3-[(Benzo[1,2,5]oxadiazol-5-ylmethyl)-amino]-8-aza-bicyclo[3.2.1]oct-8-yl}-1-(3-chloro-6-methoxy-quinolin-4-yl)-ethanol] | ≤ 2 |
| COc1cnc2ccc(Cl)c(C(O)CN3CCCC(CNCc4cc5c(cc4F)SCC(=O)N5)C3)c2n1 (centres unmarked) [Example 98, 6-[({1-[2-(6-Chloro-3-methoxy-quinoxalin-5-yl)-2-hydroxy-ethyl]-piperidin-3-ylmethyl}-amino)-methyl]-7-fluoro-4H-benzo[1,4]thiazin-3-one] | ≤ 2 |
| COc1cnc2cccc(C(O)CN3C4CCC3CC(NC/C=C/c3ccccc3)C4)c2c1 (centres unmarked) [Example 38, 1-(3-Methoxy-quinolin-5-yl)-2-[3-((E)-3-phenylallylamino)-8-aza-bicyclo[3.2.1]oct-8-yl]-ethanol] | ≤ 2 |
| COc1ccc2ncc(Cl)c(C(O)CN3CCOC(CNCc4ccc5c(c4)NC(=O)CO5)C3)c2c1 (single isomer, unassigned) [Example 71, 6-[({4-[2-(3-Chloro-6-methoxy-quinolin-4-yl)-2-hydroxy-ethyl]-morpholin-2-ylmethyl}-amino)-methyl]-4H-benzo[1,4]oxazin-3-one] | ≤ 2 |
| COc1ccc2nccc(C(O)CN3CCOC(CNCc4ccc5c(c4)NC(=O)CS5)C3)c2n1 (centres unmarked) [Example 32, 6-[({4-[2-Hydroxy-2-(6-methoxy-[1,5]naphthyridin-4-yl)-ethyl]-morpholin-2-ylmethyl}amino)-methyl]-4H-benzo[1,4]thiazin-3-one] | ≤ 2 |
| COc1cnc2cccc(C(O)CN3C4CCC3CC(NCc3ccc5c(c3)OCCO5)C4)c2c1 (centres unmarked) [Example 39, 2-{3-[(2,3-Dihydro-benzo[1,4]dioxin-6-ylmethyl)-amino]-8-aza-bicyclo[3.2.1]oct-8-yl}-1-(3-methoxy-quinolin-5-yl)-ethanol] | ≤ 2 |
| COc1ccc2ncc(Cl)c(C(O)CN3CCOC(CNCc4ccc5c(c4)OCCO5)C3)c2c1 (single isomer, unassigned) [Example 73, 1-(3-Chloro-6-methoxy-quinolin-4-yl)-2-(2-{[(2,3-dihydro-benzo[1,4]dioxin-6-ylmethyl)-amino]-methyl}-morpholin-4-yl)-ethanol] | ≤ 2 |
| COc1ccc2ncc(Cl)c(C(O)CN3CCCC(CNCc4ccc5c(c4)OCO5)C3)c2c1 (single isomer, unassigned) [Example 65, 2-(3-{[(Benzo[1,3]dioxol-5-ylmethyl)-amino]-methyl}-piperidin-1-yl)-1-(3-chloro-6-methoxy-quinolin-4-yl)-ethanol] | ≤ 2 |
| COc1ccc2ncc(Cl)c(C(O)CN3CCOC(CNCc4cc5c(cc4F)SCC(=O)N5)C3)c2c1 (single isomer, unassigned) [Example 75, 6-[({4-[2-(3-Chloro-6-methoxy-quinolin-4-yl)-2-hydroxy-ethyl]-morpholin-2-ylmethyl}-amino)-methyl]-7-fluoro-4H-benzo[1,4]thiazin-3-one] | ≤ 2 |
| COc1cnc2ccc(Cl)c(C(O)CN3CCCC(CNCc4ccc5c(c4)OCO5)C3)c2n1 (centres unmarked) [Example 94, 2-(3-{[(Benzo[1,3]dioxol-5-ylmethyl)-amino]-methyl}-piperidin-1-yl)-1-(6-chloro-3-methoxy-quinoxalin-5-yl)-ethanol] | ≤ 2 |
| COc1ccc2cccc(NC(=O)C3CCCC(CNCc4cc5c(cn4)OCCO5)C3)c2n1 (centres unmarked) [Example 111, 3-{[(2,3-Dihydro-[1,4]dioxino[2,3-c]pyridin-7-ylmethyl)-amino]-methyl}-cyclohexanecarboxylic acid (2-methoxy-quinolin-8-yl)-amide] | ≤ 2 |
| COc1cnc2cccc(C(O)CN3C4CCC3CC(NCc3ccc5c(c3)NC(=O)CS5)C4)c2n1 (centres unmarked) [Example 85, 6-({8-[2-Hydroxy-2-(3-methoxy-quinoxalin-5-yl)-ethyl]-8-aza-bicyclo[3.2.1]oct-3-ylamino}-methyl)-4H-benzo[1,4]thiazin-3-one] | ≤ 2 |
| COc1ccc2ncc(Cl)c(C(O)CN3C4CCC3CC(NCc3cc5c(cn3)OCCO5)C4)c2n1 (centres unmarked) [Example 30, 1-(3-Chloro-6-methoxy-[1,5]-naphthyridin-4-yl)-2-{3-[(2,3-dihydro-[1,4]dioxino[2,3-c]pyridin-7-ylmethyl)-amino]-8-aza-bicyclo[3.2.1]oct-8-yl}-ethanol] | ≤ 2 |
| COc1ccc2nccc(C(O)CN3CCOC(CNCc4ccc5c(c4)NC(=O)CO5)C3)c2n1 (centres unmarked) [Example 34, 6-[({4-[2-Hydroxy-2-(6-methoxy-[1,5]naphthyridin-4-yl)-ethyl]-morpholin-2-ylmethyl}amino)-methyl]-4H-benzo[1,4]oxazin-3-one] | ≤ 2 |
| COc1cnc2cccc(C(O)CN3CCCC(CNCc4ccc5c(n4)NC(=O)CS5)C3)c2n1 (centres unmarked) [Example 90, 6-[({1-[2-Hydroxy-2-(3-methoxy-quinoxalin-5-yl)-ethyl]-piperidin-3-ylmethyl}-amino)-methyl]-4H-pyrido[3,2-b][1,4]thiazin-3-one] | ≤ 2 |
| COc1ccc2ncc(Cl)c(C(O)CN3CCCC(CNCc4ccc5c(c4)NC(=O)CS5)C3)c2c1 (single isomer, unassigned) [Example 68, 6-[({1-[2-(3-Chloro-6-methoxy-quinolin-4-yl)-2-hydroxy-ethyl]-piperidin-3-ylmethyl}-amino)-methyl]-4H-benzo[1,4]thiazin-3-one] | ≤ 2 |
| COc1cnc2cccc(C(O)CN3C4CCC3CC(NCc3ccc5nsnc5c3)C4)c2n1 (centres unmarked) [Example 82, 2-{3-[(Benzo[1,2,5]thiadiazol-5-ylmethyl)-amino]-8-aza-bicyclo[3.2.1]oct-8-yl}-1-(3-methoxy-quinoxalin-5-yl)-ethanol] | ≤ 2 |
| COc1ccc2nccc(C(O)CN3CCOC(CNCc4ccc5c(n4)NC(=O)CS5)C3)c2n1 (centres unmarked) [Example 33, 6-[({4-[2-Hydroxy-2-(6-methoxy-[1,5]naphthyridin-4-yl)-ethyl]-morpholin-2-ylmethyl}amino)-methyl]-4H-pyrido[3,2-b][1,4]thiazin-3-one] | ≤ 2 |
| COc1cnc2cccc(C(O)CN3C4CCC3CC(NCc3ccc5nsnc5c3)C4)c2c1 (centres unmarked) [Example 40, 2-{3-[(Benzo[1,2,5]thiadiazol-5-ylmethyl)-amino]-8-aza-bicyclo[3.2.1]oct-8-yl}-1-(3-methoxy-quinolin-5-yl)-ethanol] | ≤ 2 |
| COc1ccc2ncc(Cl)c(C(O)CN3CCCC(CNCc4cc5c(cc4F)SCC(=O)N5)C3)c2c1 (single isomer, unassigned) [Example 67, 6-[({1-[2-(3-Chloro-6-methoxy-quinolin-4-yl)-2-hydroxy-ethyl]-piperidin-3-ylmethyl}-amino)-methyl]-7-fluoro-4H-benzo[1,4]thiazin-3-one] | ≤ 2 |
| COc1ccc2ncc(Cl)c(C(O)CN3CCOC(CNCc4ccc5c(c4)NC(=O)CS5)C3)c2c1 (single isomer, unassigned) [Example 76, 6-[({4-[2-(3-Chloro-6-methoxy-quinolin-4-yl)-2-hydroxy-ethyl]-morpholin-2-ylmethyl}-amino)-methyl]-4H-benzo[1,4]thiazin-3-one] | ≤ 2 |
| COc1ccc2cccc(NC(=O)C3CCCC(CNCc4ccc5c(c4)NC(=O)CS5)C3)c2n1 (centres unmarked) [Example 112, 3-{[(3-oxo-3,4-dihydro-2H-benzo[1,4]thiazin-6-ylmethyl)-amino]-methyl}-cyclohexanecarboxylic acid (2-methoxy-quinolin-8-yl)-amide] | ≤ 2 |
| COc1ccc2ncc(Cl)c(C(O)CN3C4CCC3CC(NCc3ccc5c(c3)NC(=O)CS5)C4)c2c1 (single isomer, unassigned) [Example 57, 6-({8-[2-(3-Chloro-6-methoxy-quinolin-4-yl)-2-hydroxy-ethyl]-8-aza-bicyclo[3.2.1]oct-3-ylamino}-methyl)-4H-benzo[1,4]thiazin-3-one] | ≤ 2 |
| COc1ccc2ncc(Cl)c(C(O)CN3CCOC(CNC/C=C/c4ccccc4)C3)c2c1 (single isomer, unassigned) [Example 77, 1-(3-Chloro-6-methoxy-quinolin-4-yl)-2-{2-[((E)-3-phenyl-allylamino)-methyl]-morpholin-4-yl}-ethanol] | ≤ 2 |
| COc1cnc2cccc(C(O)CN3CCCC(CNCc4ccc5c(n4)NC(=O)CS5)C3)c2c1 (single isomer, unassigned) [Example 42, 6-[({1-[2-Hydroxy-2-(3-methoxy-quinolin-5-yl)-ethyl]-piperidin-3-ylmethyl}-amino)-methyl]-4H-pyrido[3,2-b][1,4]thiazin-3-one] | ≤ 2 |
| COc1ccc2ncc(Cl)c(C(O)CN3CCCC(CNC/C=C/c4ccccc4)C3)c2c1 (single isomer, unassigned) [Example 69, 1-(3-Chloro-6-methoxy-quinolin-4-yl)-2-{3-[((E)-3-phenyl-allylamino)-methyl]-piperidin-1-yl}-ethanol] | ≤ 2 |
| COc1ccc2nccc(C(O)CN3CCOC(CNCc4ccc5c(c4)OCCO5)C3)c2n1 (centres unmarked) [Example 31, 2-(2-{[(2,3-Dihydro-benzo[1,4]dioxin-6-ylmethyl)-amino]-methyl}-morpholin-4-yl)-1-(6-methoxy-[1,5]naphthyridin-4-yl)-ethanol] | ≤ 2 |
